According to patent US20120083473A1, “TREATMENT OF CONDITIONS BY TOLL-LIKE RECEPTOR MODULATORS” (priority 2010, published 2012):

Legend:
[1] = tested on: murine peritoneal macrophages (PEC); assay: Dose-response of M1 and M2 gene expression in PEC (RT PCR); type: cell-based, mice
Procedure: A third group of experiments was performed to investigate the dose-response effects of TMX, its potency as compared to classical inflammatory signals (e.g. LPS) and the activation of selected transcription factors playing an established role in tolerance, as well as in the induction of M1/M2 polarized inflammatory programs. PECs treated for 4 hours or 20 hours with 100 ng/mlof LPS or increased concentrations of TMX or 1V209 were analyzed by RT PCR for the expression of representative M1 (TNFα, IL-12p40) and M2 (IL-10, TGFβ) genes. […] In this experiment, as compared to 1V209, TMX is a lower inducer of M1 genes expression.
Cell Culture and treatments. Peritoneal exudate cells (PEC) were harvested from mice injected with 1 ml of 3% (w/v) thioglycollate medium (Difco, Detroit, Mich.) 4 days prior to isolation. PECs were incubated in RPMI 1640 medium, containing 10% fetal bovine serum, 2 mM glutamine and 100 U/ml of penicillin-streptomycin. The concentration for the different treatments were as follows: LPS (100 ng/ml) (Lipopolysaccharide from Salmonella Abortus Equi S-form, Alexis), CpG (1 μg/ml), Pam3CSK (2 μg/ml), Poly I:C (10 μg/ml), Loxorubine (100 μM), flagellin (100 ng/ml) IL-1β (20 ng/ml), TNF (20 ng/ml), IL-10 (20 ng/ml) (Peprotech), IFNγ (200 U/ml) (Peprotech). To induce TMX tolerance, cells were incubated in the presence of TMX (10 μM or 1 μM) for 20 hrs, washed and maintained in RPMI medium for 2 hrs and then re-challenged with TMX (10 μM) for 4 hrs. To induce TMX-tolerization (T/M) cells were treated with TMX for 20 hrs, washed and then maintained in medium for additional 6 hours, without TMX re-challenge. To induce M1-activation, cells were incubated in medium for 20 hrs, washed, left in medium for 2 hrs and finally stimulated with TMX (10 μM) for 4 hrs. Control cells (M/M) were cultured in medium for the entire period of the experiment. For gene expression analysis, total RNA was extracted from TMX treated and untreated cells with trizol (Invitrogen), according to the manufacturer's instructions. To analyze cytokines and chemokines production supernatants were collected 24 hrs after the second challenge with TMX.
(§1) Real-Time PCR. Total RNA was purified as previously described. Briefly, reverse transcription from 1 μg of RNA was performed using cDNA Archive kit (Applied Biosystem, NJ, USA). Real time PCR was performed using Power Syber Green PCR Master Mix (Applied Biosystem, NJ, USA) and detected by 7900HT Fast Real-Time System (Applied Biosystem, NJ, USA). Data were processed using the SDS2.2.2 software (Applied Biosystem, NJ, USA). Results were normalized to the expression of the housekeeping gene β-actin and then expressed as folds of upregulation, with respect to the control cell population.

human monocytes (Mo) [2] = assay: Cross-tolerance toward TLR ligands in human monocytes (gene expression); type: cell-based
Procedure: To evaluate the effects of TMX on human cell activation, monocytes were isolated from buffy coats obtained from four different healthy donors. With respect to macrophage tolerance, cells were treated with Compound 2 (10 microM) up to 20 hours and then re-challenged with agonists/ligands of different TLRs (TLR2, TLR4, TLR5, TLR9, TLR7, etc. . . . ), including the TLR7 unconjugated ligand 1V209 (free pharmacophore) at a concentration of 10 microM.
(§2) Cell Culture and treatments. Monocytes (Mo) were obtained from buffycoats collected from healthy donors as previously described (Porta C et al, PNAS 2009). Cells were incubated in RPMI 1640 medium, containing 10% fetal bovine serum, 2 mM glutamine and 100 U/ml of penicillin-streptomycin. The concentrations for the different treatments were as follows: LPS (100 ng/ml) (Lipopolysaccharide from Salmonella Abortus Equi S-form, Alexis), CpG (1 microg/ml), Pam3CSK (2 microg/ml), Poly I:C (10 microg/ml), Loxorubine (100 microM), flagellin (100 ng/ml). To induce TMX tolerance, cells were incubated in the presence of TMX (10 microM) for 20 hrs, washed and maintained in RPMI medium for 2 hrs and then re-challenged with TMX (10 microM) for 4 hrs. To induce TMX-tolerization (T/M) cells were treated with TMX for 20 hrs, washed and then maintained in medium for additional 6 hours, without TMX re-challenge. To induce M1-activation cells were incubated in medium for 20 hrs, washed, left in medium for 2 hrs and finally stimulated with TMX (10 microM) for 4 hrs. Control cells (M/M) were cultured in medium for the entire period of the experiment. For gene expression analysis, total RNA was extracted from TMX treated and untreated cells with trizol (Invitrogen), according to the manufacturer's instructions. To analyze cytokines and chemokines production supernatants were collected 24 hrs after the second challenge with TMX.
as §1, with “from 1 microgram of RNA” for “from 1 μg of RNA”, “performed using a cDNA Archive” for “performed using cDNA Archive”, “housekeeping gene 8-actin and then” for “housekeeping gene β-actin and then”

human monocytes (Mo) [3] = assay: Cytokine/chemokine secretion by TMX-tolerant human monocytes (ELISA); type: cell-based
Procedure: as §2
ELISA. Cell-free supernatants were tested by ELISA for the indicated cytokines/chemokines. Human TNF-alpha, IL-6, IL-1beta, IL-10, CCL17 and CCL22 ELISA kits were purchased from R&D Systems (Minneapolis, Minn.).

[4] = TMX-tolerized cells re-challenged with TMX or 1V209

COCCOc1nc(N)c2nc(O)n(Cc3ccc(C(=O)NCCOCCOCCOCCOCCOCCOCCn4cc(CCC(=O)O)nn4)cc3)c2n1 [Compound 2]
most potent dose tested for the induction of both M1 and M2 genes ([1]; PEC): 30 µM
induction of both M1 and M2 gene expression ([1]; PECs treated 4 hours or 20 hours with increased concentrations): dose-dependent induction
induction of M1 genes expression as compared to 1V209 ([1]; PECs, 4 or 20 hours): lower inducer
TNFalpha, IL-1 beta, IL-6 and IL-12 gene expression in response to TLR ligands (human monocytes (Mo) [2]; Mo tolerized by 20 hours pre-treatment, excluding Pam): inability to up-regulate
down-regulation of M1 marker IL-12p40 (human monocytes (Mo) [2]; TMX pretreatment, stimulation through TLRs other than TLR7): ~10 fold
M2 gene induction, CCL17 in particular (human monocytes (Mo) [2]; TMX treatment, TLR agonist re-challenge): strongly enhanced
Th2-recruiting chemokines genes (CCL17, CCL22) on TLR engagement (human monocytes (Mo) [2]; tolerized Mo, but not IL-10): trigger the expression
levels of IL-10 in the supernatant of TMX-tolerant monocytes (human monocytes (Mo) [3]): decreased
secretion of selected M2 markers (CCL17 and CCL22) (human monocytes (Mo) [3]; TMX-tolerized Mo from 2 out of 4 healthy donors): significantly augmented
CCL17 and CCL22 secretion (human monocytes (Mo) [3]; [4]): induction
TNFalpha and IL-6 secretion (human monocytes (Mo) [3]; [4]): inhibition
IL-10 production by Compound 2-conditioned cells (human monocytes (Mo) [3]; as stated in comparison of human and mouse data): increased
TNF and IL-6 secretion (human monocytes (Mo) [3]; cells tolerized with TMX and re-challenged with TLR agonists, except for LPS): decreased
IL-1beta production in TMX-tolerized cells (human monocytes (Mo) [3]; re-challenged with TLR agonists): all TLR agonists promote IL-1beta production
